Assay results reported in US9708336B2, “Metallo-beta-lactamase inhibitors” (priority 2014, dated 2017).
Where two headings read alike, the source gives them in different places.

Key:
NDM-1 = NDM-1 (Klebsiella pneumoniae, UniProt C7C422); assay: biochemical; type: biochemical; settings: read-out: NDM-1 IC50
IMP-1 = IMP-1 (Serratia marcescens, UniProt P52699); assay: biochemical; type: biochemical; settings: read-out: IMP-1 IC50
VIM-1 = VIM-1 (Pseudomonas aeruginosa (strain ATCC 15692 / DSM 22644 / CIP 104116 / JCM 14847 / LMG 12228 / 1C / PRS 101 / PAO1), UniProt A0A0F7KYQ8); assay: Enzyme activity: determination of IC50, fluorescence assay with CCF2-FA substrate (VIM-1); type: biochemical
[1] = test system: Escherichia coli expressing NDM-1 (CLB30016); assay: Antibiotic potentiation activity: synergistic concentration (MITC95) with imipenem, OD600 growth; type: cell-based
How it was run: (§1)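 Growth after 22–24 h at 35 °C is measured spectrophotometrically for bacteria incubated with compound plus imipenem (4 μg/ml in-well, or 1 μg/ml). Cells come from overnight agar colonies resuspended in saline and diluted 1:100 in 1.1× CAMHB.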

[2] = test system: Klebsiella pneumoniae expressing VIM-1 (IHMA599644); assay: as above; type: cell-based
How it was run: as §1

[3] = test system: Serratia marcescens expressing IMP-1 (CL5741); assay: as above; type: cell-based
How it was run: as §1

[4] = NDM-1 enzyme, CCF2-FA fluorescence assay
[5] = IMP-1 enzyme, CCF2-FA fluorescence assay
[6] = VIM-1 enzyme, CCF2-FA fluorescence assay, read-out: VIM-1 IC50
[7] = Escherichia coli expressing NDM-1 (CLB30016), 95% growth inhibition
[8] = Klebsiella pneumoniae expressing VIM-1 (IHMA599644), 95% growth inhibition
[9] = Serratia marcescens expressing IMP-1 (CL5741), 95% growth inhibition
[10] = fluorescence assay with CCF2-FA substrate
[11] = fluorescence assay with CCF2-FA substrate, read-out: VIM-1 IC50
[12] = CLB30016 (NDM-1), 95% inhibition of bacterial growth
[13] = IHMA599644 (VIM-1), 95% inhibition of bacterial growth
[14] = CL5741 (IMP-1), 95% inhibition of bacterial growth
[15] = concentration giving 95% inhibition of bacterial growth
[16] = NDM-1 enzyme, CCF2-FA substrate
[17] = IMP-1 enzyme, CCF2-FA substrate
[18] = VIM-1 enzyme, CCF2-FA substrate, read-out: VIM-1 IC50
[19] = (CLB30016, NDM-1), 95% growth inhibition
[20] = Klebsiella pneumoniae IHMA599644 (VIM-1), 95% growth inhibition
[21] = Serratia marcescens CL5741 (IMP-1), 95% growth inhibition

Chain of IMP-1 (P52699 whole entry, looked up): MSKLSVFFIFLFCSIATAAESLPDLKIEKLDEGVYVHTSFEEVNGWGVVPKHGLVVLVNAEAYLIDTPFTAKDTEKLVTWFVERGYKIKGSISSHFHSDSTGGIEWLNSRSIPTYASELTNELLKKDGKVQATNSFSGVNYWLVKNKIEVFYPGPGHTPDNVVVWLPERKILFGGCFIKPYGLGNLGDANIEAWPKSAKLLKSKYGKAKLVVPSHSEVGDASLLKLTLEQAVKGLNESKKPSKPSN
Chain of NDM-1 (C7C422 whole entry, looked up, species assumed): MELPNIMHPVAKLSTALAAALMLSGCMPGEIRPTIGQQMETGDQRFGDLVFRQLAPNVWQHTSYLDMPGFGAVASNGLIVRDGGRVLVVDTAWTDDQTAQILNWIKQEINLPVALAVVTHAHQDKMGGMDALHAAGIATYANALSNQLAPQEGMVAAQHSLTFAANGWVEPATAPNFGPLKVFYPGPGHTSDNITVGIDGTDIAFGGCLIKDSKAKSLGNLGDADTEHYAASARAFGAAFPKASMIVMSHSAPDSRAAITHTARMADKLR

NC(=O)C1CCN(Cc2ccc(-c3cccc(S(N)(=O)=O)c3-c3nnn[nH]3)cc2)C1 (stereo not drawn) [Example 337, 1-((3′-sulfamoyl-2′-(1H-tetrazol-5-yl)-[1,1′-biphenyl]-4-yl)methyl)pyrrolidine-3-carboxamide]
IC50 (NDM-1; [4]): 4.38 nM | IC50 (IMP-1; [5]): 69.8 nM | IC50 (VIM-1; [6]): 321 nM | Escherichia coli MITC95 [1, 7]: 0.3906 µM | Klebsiella pneumoniae MITC95 [2, 8]: 75 µM | Serratia marcescens MITC95 [3, 9]: 2.344 µM

NS(=O)(=O)c1c(C(F)(F)F)ccc([C@H]2CC[C@H](C3CCNCC3)CC2)c1-c1nnn[nH]1 [Example 832, 3-((1r,4r)-4-(piperidin-4-yl)cyclohexyl)-2-(1H-tetrazol-5-yl)-6-(trifluoromethyl)benzenesulfonamide]
IC50 (NDM-1; [10]): 0.501 nM | IC50 (IMP-1; [10]): 1.46 nM | IC50 (VIM-1; [11]): 0.212 nM | Escherichia coli MITC95 [1, 12]: 1.563 µM | Klebsiella pneumoniae MITC95 [2, 13]: 4.688 µM | Serratia marcescens MITC95 [3, 14]: 3.125 µM

NS(=O)(=O)c1nccc(N2CCC(N3CCCC3)CC2)c1-c1nnn[nH]1 [Example 222, 4-(4-pyrrolidin-1-ylpiperidin-1-yl)-3-(1H-tetrazol-5-yl)pyridine-2-sulfonamide]
IC50 (NDM-1; [10]): 5150 nM | IC50 (IMP-1; [10]): 20000 nM | IC50 (VIM-1; [11]): 794 nM | Escherichia coli expressing NDM-1 (CLB 30016) MITC95 [1, 15]: 12.5 µM | Klebsiella pneumoniae expressing VIM-1 (IHMA 599644) MITC95 [2, 15]: 12.5 µM | Serratia marcescens expressing IMP-1 (CL5741) MITC95 [3, 15]: 75 µM

NS(=O)(=O)c1c(CC2CCNC2)ccc(-c2ccc(C3CCNCC3)cc2)c1-c1nn[nH]n1 (stereo not drawn) [Example 468, 4′-(piperidin-4-yl)-4-(pyrrolidin-3-ylmethyl)-2-(2H-tetrazol-5-yl)-[1,1′-biphenyl]-3-sulfonamide]
IC50 (NDM-1; [4]): 9.95 nM | IC50 (IMP-1; [5]): 13.5 nM | IC50 (VIM-1; [6]): 3.81 nM | Escherichia coli MITC95 [1, 7]: 0.7813 µM | Klebsiella pneumoniae MITC95 [2, 8]: 1.563 µM | Serratia marcescens MITC95 [3, 9]: 1.563 µM

CC1(O)CCCN(c2ccc(C(F)(F)F)c(S(N)(=O)=O)c2-c2nnn[nH]2)C1 (stereo not drawn) [Example 654, 3-(3-hydroxy-3-methylpiperidin-1-yl)-2-(1H-tetrazol-5-yl)-6-(trifluoromethyl)benzenesulfonamide]
IC50 (NDM-1; [16]): 6.85 nM | IC50 (IMP-1; [17]): 19.6 nM | IC50 (VIM-1; [18]): 1.23 nM | Escherichia coli MITC95 [1, 19]: 4.688 µM | Klebsiella pneumoniae MITC95 [2, 20]: 9.375 µM | Serratia marcescens MITC95 [3, 21]: 1.172 µM

CN(C)CCCCNCc1ccc(-c2cccc(S(N)(=O)=O)c2-c2nnn[nH]2)cc1 [Example 356, 4′-({[4-(dimethylamino)butyl]amino}methyl)-2-(1H-tetrazol-5-yl)biphenyl-3-sulfonamide]
IC50 (NDM-1; [4]): 24.1 nM | IC50 (IMP-1; [5]): 1540 nM | IC50 (VIM-1; [6]): 646 nM | Escherichia coli MITC95 [1, 7]: 1.563 µM | Klebsiella pneumoniae MITC95 [2, 8]: 75 µM | Serratia marcescens MITC95 [3, 9]: 12.5 µM

NS(=O)(=O)c1c(CCC(F)(F)F)ccc(-c2ccc(C3CCNCC3)cc2)c1-c1nn[nH]n1 [Example 473, 4′-(piperidin-4-yl)-2-(2H-tetrazol-5-yl)-4-(3,3,3-trifluoropropyl)-[1,1′-biphenyl]-3-sulfonamide]
IC50 (NDM-1; [4]): 4.47 nM | IC50 (IMP-1; [5]): 7.3 nM | IC50 (VIM-1; [6]): 1.42 nM | Escherichia coli MITC95 [1, 7]: 4.688 µM | Klebsiella pneumoniae MITC95 [2, 8]: 4.688 µM | Serratia marcescens MITC95 [3, 9]: 0.5859 µM

Cc1ccncc1-c1ccc(C(F)(F)F)c(S(N)(=O)=O)c1-c1nnn[nH]1 [Example 747, 3-(4-methylpyridin-3-yl)-2-(1H-tetrazol-5-yl)-6-(trifluoromethyl)benzenesulfon-amide]
IC50 (NDM-1; [10]): 5.72 nM | IC50 (IMP-1; [10]): 11.2 nM | IC50 (VIM-1; VIM-1 IC50, fluorescence assay with CCF2-FA substrate): 0.866 nM | Escherichia coli MITC95 [1, 12]: 6.25 µM | Klebsiella pneumoniae MITC95 [2, 13]: 12.5 µM | Serratia marcescens MITC95 [3, 14]: 25 µM

NS(=O)(=O)c1c(C(F)(F)F)ccc(-c2ccc(-c3c[nH]c(O)n3)cc2)c1-c1nnn[nH]1.O=C(O)C(F)(F)F [Example 559, 3-[4-(2-hydroxy-1H-imidazol-4-yl)phenyl]-2-(1H-tetrazol-5-yl)-6-(trifluoromethyl)benzenesulfonamide]
IC50 (NDM-1; [16]): 0.439 nM | IC50 (IMP-1; [17]): 0.534 nM | IC50 (VIM-1; [18]): 0.212 nM | Escherichia coli MITC95 [1, 19]: 12.5 µM | Klebsiella pneumoniae MITC95 [2, 20]: 12.5 µM | Serratia marcescens MITC95 [3, 21]: 6.25 µM
